Tests used:
Type in all cases: biochemical
[1] = target: T1, PI3K alpha (Homo sapiens, UniProt P42336); test: Luciferase-based luminescence assay (KinaseGlo), PI3K alpha enzymatic activity; conditions: inhibition of enzymatic activity, 25 μM ATP, read-out: IC50 p110α
T1 construct: purchased Invitrogen Corp., Carlsbad, CA, USA
Description: (§1) PI3K catalyzes the conversion of phosphatidylinositol-4,5-bisphosphate (PIP2) and ATP to phosphatidylinositol-3,4,5-trisphosphate (PIP3) and ADP. For all assays, the reaction buffer comprised 50 mM HEPES, pH 7.5, 3 mM MgCl2, 1 mM EGTA, 100 mM NaCl, 0.03% CHAPS and 2 mM DTT. Compounds for testing were dissolved and serially diluted in 100% DMSO (total of 10 concentrations), then diluted 1:25 in reaction buffer.
(§2) PI3K alpha and PI3K delta enzymatic activity was determined by measuring the amount of ATP consumed following the kinase reaction using a luciferase-based luminescence assay (KinaseGlo®, Promega Corp., Madison, WI, USA). PI3K enzyme solutions were prepared by diluting PI3K alpha (Invitrogen Corp., Carlsbad, CA, USA) or PI3K delta (Millipore, Billerica, MA, USA) in reaction buffer, to 4× the final assay concentration (final concentrations of enzymes were 1.65 nM and 6.86 nM for PI3K alpha and PI3K delta, respectively). A substrate solution was prepared by mixing PIP2 and ATP in reaction buffer at 2× the final assay concentration (final concentrations were 50 μM and 25 μM for PIP2 and ATP respectively). 2.5 μL each of the compound and kinase mixtures were added to individual wells of white low volume 384-well assay plates and mixed by shaking. The reactions were started by adding 5 μL of substrate mixture per well and shaking. The assay plates were covered and reactions were allowed to proceed for 1 hour (PI3K alpha) or 2 hours (PI3K delta), after which 10 μL of Kinase Glo® reagent was added. The plates were briefly centrifuged and incubated for 10 minutes, after which luminescence was measured using a FlexStation plate reader (Molecular Devices, Sunnyvale, CA, USA). IC50 values were determined by curve fitting using Graphpad Prism software (Graphpad Software, La Jolla, CA, USA).

[2] = target: T2, PI3K delta (Homo sapiens, UniProt O00329); test: Luciferase-based luminescence assay (KinaseGlo), PI3K delta enzymatic activity; conditions: for IC50: inhibition of enzymatic activity, KinaseGlo, 25 μM ATP, read-out: IC50 p110δ; for α/δ ratio: ratio of enzymatic IC50 against PI3Kα over IC50 against PI3Kδ; for β/δ ratio / γ/δ ratio: ratio of enzymatic IC50 values, Table 1
T2 construct: purchased Millipore, Billerica, MA, USA
Description: as §1, §2

[3] = target: T3, PI3K beta (Homo sapiens, UniProt P42338); test: Luciferase-based luminescence assay (ADP Glo), PI3K beta enzymatic activity; conditions: for IC50: inhibition of enzymatic activity, ADP Glo, 25 μM ATP, read-out: IC50 p110β; for α/β ratio: ratio of enzymatic IC50 values, Table 1
T3 construct: purchased Millipore, Billerica, MA, USA
Description: as §1
(§3) PI3K beta and gamma enzymatic activity was determined by measuring the amount of ADP produced following the kinase reaction using a luciferase-based luminescence assay (ADP Glo®, Promega Corp., Madison, WI, USA). PI3K enzyme solutions were prepared by diluting PI3K beta (Millipore, Billerica, MA, USA) or PI3K gamma (Invitrogen Corp., Carlsbad, CA, USA) in reaction buffer, to 4× the final assay concentration (final concentrations of enzymes were 4.8 nM and 7.6 nM for PI3K beta and PI3K gamma respectively). A substrate solution was prepared by mixing PIP2 and ATP in reaction buffer at 2× the final assay concentration (final concentrations were 50 μM and 25 μM for PIP2 and ATP respectively). 2.5 μL each of the compound and kinase mixtures were added to individual wells of white low volume 384-well assay plates and mixed by shaking. The reactions were started by adding 5 μL of substrate mixture per well and shaking. The assay plates were covered and reactions were allowed to proceed for 1 hour. Then, 5 μL of reaction mix was transferred to another white low volume 384-well plate, and 5 μL of ADP-Glo™ reagent was added. The plates were briefly centrifuged and incubated for 40 minutes, after which 10 μL of kinase detection buffer was added. The plates then were centrifuged briefly, shaken slowly and equilibrated at room temperature for 30 minutes, after which luminescence was measured using a FlexStation plate reader (Molecular Devices, Sunnyvale, CA, USA). IC50 values were determined by curve fitting using Graphpad Prism software (Graphpad Software, La Jolla, CA, USA).

[4] = target: T4, PI3K gamma (Homo sapiens, UniProt P48736); test: Luciferase-based luminescence assay (ADP Glo), PI3K gamma enzymatic activity; conditions: inhibition of enzymatic activity, 25 μM ATP, read-out: IC50 p110γ
T4 construct: purchased Invitrogen Corp., Carlsbad, CA, USA
Description: as §1, §3

[5] = target: mTOR (Homo sapiens, UniProt P42345); test: mTOR inhibition (Table 1); conditions: Table 1, no method described

T1 sequence (P42336 whole entry, species assumed): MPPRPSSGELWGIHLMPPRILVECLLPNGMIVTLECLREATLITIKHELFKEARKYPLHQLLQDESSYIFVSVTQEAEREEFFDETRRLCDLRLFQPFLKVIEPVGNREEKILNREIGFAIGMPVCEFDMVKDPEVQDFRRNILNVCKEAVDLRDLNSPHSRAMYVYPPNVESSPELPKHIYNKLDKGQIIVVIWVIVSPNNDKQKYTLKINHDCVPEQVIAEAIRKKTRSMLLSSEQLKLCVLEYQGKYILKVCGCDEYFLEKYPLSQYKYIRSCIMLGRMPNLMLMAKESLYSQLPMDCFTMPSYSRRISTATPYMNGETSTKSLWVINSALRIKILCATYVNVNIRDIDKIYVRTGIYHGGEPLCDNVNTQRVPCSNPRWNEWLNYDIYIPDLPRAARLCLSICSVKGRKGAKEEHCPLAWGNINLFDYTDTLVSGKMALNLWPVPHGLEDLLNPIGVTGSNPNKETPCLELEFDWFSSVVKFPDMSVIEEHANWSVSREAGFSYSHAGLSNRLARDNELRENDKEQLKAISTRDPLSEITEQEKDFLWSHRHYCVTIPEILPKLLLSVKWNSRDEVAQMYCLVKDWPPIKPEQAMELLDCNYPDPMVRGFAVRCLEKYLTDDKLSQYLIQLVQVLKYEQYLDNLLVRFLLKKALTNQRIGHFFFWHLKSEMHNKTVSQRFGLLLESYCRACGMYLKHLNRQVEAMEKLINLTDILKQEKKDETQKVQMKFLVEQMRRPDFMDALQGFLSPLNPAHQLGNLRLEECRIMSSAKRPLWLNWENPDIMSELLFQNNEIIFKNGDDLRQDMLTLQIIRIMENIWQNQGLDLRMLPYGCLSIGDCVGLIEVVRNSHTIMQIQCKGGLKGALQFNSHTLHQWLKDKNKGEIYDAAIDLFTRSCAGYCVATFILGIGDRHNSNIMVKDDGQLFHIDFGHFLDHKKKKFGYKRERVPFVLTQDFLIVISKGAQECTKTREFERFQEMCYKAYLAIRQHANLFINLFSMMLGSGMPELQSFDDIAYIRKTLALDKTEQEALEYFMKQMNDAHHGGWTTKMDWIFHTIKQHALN
T1 sequence (P27986 whole entry partner, species assumed): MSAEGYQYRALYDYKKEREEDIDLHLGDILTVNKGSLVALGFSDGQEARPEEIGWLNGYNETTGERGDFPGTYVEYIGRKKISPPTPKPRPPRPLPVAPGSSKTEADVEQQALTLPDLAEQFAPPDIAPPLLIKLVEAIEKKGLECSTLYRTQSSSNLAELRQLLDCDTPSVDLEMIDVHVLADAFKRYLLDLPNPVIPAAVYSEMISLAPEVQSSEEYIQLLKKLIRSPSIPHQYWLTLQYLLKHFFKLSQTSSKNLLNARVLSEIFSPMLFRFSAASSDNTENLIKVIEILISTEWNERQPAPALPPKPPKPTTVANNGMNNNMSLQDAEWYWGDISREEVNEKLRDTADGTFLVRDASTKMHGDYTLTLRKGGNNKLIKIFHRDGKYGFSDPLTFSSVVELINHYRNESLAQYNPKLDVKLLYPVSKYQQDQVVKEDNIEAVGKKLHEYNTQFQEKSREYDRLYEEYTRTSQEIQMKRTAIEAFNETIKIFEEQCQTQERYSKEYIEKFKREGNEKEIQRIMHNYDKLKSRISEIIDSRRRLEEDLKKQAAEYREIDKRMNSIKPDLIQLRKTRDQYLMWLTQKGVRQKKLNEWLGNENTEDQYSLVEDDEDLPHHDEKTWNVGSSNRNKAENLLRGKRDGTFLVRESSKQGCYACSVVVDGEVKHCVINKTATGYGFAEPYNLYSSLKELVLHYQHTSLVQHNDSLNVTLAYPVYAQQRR
T3 sequence (P42338 whole entry, species assumed): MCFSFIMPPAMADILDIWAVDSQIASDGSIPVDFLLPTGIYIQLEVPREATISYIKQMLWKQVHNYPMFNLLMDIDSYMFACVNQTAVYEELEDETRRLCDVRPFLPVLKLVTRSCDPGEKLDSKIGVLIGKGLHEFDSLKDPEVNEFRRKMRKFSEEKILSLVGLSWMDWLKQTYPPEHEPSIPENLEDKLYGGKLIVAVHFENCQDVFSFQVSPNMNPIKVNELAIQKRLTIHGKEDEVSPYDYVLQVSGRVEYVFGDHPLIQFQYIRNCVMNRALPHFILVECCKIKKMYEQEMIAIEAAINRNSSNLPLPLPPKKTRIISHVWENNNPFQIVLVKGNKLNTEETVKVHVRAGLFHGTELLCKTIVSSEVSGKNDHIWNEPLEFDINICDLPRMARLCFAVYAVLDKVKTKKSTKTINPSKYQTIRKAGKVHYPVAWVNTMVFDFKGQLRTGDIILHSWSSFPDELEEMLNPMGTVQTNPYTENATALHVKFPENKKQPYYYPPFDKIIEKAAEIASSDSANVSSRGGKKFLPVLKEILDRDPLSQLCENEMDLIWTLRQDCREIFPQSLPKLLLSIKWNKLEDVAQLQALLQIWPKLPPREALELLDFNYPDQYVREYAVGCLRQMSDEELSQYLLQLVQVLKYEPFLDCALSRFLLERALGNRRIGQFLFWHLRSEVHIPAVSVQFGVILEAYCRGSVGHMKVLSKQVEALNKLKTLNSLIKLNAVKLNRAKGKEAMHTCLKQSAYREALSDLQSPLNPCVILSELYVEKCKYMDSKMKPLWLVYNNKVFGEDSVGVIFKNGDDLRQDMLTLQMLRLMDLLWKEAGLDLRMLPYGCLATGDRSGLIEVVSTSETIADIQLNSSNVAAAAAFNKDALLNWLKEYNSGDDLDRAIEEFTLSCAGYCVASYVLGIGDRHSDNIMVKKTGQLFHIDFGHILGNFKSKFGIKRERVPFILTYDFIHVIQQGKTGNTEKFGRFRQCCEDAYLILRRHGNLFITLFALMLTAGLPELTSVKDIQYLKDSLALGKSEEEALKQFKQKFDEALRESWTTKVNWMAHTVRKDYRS
T3 sequence (P27986 whole entry partner, species assumed): as the sequence (P27986 whole entry partner, species assumed) above
T2 sequence (O00329 whole entry, species assumed): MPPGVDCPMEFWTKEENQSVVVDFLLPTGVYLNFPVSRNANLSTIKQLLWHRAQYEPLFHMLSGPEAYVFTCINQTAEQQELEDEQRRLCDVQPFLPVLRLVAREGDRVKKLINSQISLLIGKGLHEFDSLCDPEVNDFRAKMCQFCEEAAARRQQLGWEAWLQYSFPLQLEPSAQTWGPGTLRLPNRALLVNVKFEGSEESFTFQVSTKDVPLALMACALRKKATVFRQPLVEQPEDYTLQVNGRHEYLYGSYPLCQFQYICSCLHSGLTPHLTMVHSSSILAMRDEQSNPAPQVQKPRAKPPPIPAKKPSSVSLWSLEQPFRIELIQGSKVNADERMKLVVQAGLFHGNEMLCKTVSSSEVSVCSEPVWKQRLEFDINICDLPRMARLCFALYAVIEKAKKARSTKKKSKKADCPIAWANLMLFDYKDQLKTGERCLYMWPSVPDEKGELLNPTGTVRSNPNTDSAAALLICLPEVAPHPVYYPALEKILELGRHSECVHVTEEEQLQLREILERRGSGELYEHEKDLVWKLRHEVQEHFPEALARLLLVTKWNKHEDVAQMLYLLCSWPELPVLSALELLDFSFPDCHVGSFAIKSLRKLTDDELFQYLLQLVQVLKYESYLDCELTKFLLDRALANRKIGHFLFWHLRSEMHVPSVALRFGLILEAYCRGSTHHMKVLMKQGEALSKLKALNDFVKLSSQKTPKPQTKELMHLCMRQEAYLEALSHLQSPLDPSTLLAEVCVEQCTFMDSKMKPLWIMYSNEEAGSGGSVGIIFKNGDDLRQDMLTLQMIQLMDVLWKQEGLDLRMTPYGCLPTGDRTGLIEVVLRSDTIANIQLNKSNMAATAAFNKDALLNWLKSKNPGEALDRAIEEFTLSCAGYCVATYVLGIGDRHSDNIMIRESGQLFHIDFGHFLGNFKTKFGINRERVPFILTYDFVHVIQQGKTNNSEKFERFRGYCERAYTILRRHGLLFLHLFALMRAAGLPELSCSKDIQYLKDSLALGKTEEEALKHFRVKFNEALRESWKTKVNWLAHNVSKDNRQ
T2 sequence (P27986 whole entry partner, species assumed): as the sequence (P27986 whole entry partner, species assumed) above
T4 sequence (P48736 whole entry, species assumed): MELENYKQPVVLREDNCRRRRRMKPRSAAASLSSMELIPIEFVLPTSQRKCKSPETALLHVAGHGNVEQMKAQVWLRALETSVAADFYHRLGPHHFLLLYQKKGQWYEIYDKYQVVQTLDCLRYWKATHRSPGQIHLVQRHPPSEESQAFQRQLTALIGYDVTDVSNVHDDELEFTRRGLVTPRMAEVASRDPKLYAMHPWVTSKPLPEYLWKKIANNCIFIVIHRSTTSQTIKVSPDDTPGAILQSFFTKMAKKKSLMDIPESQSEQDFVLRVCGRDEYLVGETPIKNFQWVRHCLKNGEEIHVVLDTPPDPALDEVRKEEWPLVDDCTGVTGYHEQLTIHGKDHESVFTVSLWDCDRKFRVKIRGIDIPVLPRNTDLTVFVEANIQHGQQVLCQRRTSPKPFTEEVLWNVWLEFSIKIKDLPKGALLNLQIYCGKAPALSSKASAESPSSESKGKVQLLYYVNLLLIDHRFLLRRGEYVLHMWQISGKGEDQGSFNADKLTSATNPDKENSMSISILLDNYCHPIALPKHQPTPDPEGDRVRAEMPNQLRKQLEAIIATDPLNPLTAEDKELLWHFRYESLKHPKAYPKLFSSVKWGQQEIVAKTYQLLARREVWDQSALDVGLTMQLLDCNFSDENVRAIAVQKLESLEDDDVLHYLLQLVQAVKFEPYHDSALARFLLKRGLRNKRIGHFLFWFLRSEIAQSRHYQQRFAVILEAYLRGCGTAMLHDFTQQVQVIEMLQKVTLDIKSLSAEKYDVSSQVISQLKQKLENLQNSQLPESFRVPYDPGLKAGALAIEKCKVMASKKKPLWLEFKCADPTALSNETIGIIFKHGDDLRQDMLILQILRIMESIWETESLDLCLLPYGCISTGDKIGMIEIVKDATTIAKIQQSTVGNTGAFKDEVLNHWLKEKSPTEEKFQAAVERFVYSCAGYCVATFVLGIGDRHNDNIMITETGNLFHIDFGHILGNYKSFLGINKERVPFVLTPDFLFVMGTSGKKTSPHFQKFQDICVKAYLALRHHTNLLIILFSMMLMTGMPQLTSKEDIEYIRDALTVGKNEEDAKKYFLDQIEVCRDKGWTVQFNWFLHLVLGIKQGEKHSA

SMILES	IC50 [1] [nM]	IC50 [2] [nM]	α/δ ratio [2]	IC50 [3] [nM]	α/β ratio [3]	IC50 [4] [nM]	β/δ ratio [2]	γ/δ ratio [2]	IC50 [5] [nM]
CC(Nc1nc(N2CCOCC2)nc(-n2c(C(F)F)nc3ccccc32)n1)c1ccccc1 (centres unmarked) [Compound A1, 4-(2-(difluoromethyl)-1H-benzo[d]imidazol-1-yl)-6-morpholino-N-(1-phenylethyl)-1,3,5-triazin-2-amine]	> 500	≤ 100	C’	–	–	–	–	–	–
C[C@H](Nc1nc(N2CCOCC2)nc(-n2c(C(F)F)nc3ccccc32)n1)c1ccccc1 [Compound A2, (S)-4-(2-(difluoromethyl)-1H-benzo[d]imidazol-1-yl)-6-morpholino-N-(1-phenylethyl)-1,3,5-triazin-2-amine]	> 500	200 to 500	D’	> 500	D’	> 500	A’	D’	> 500
C[C@@H](Nc1nc(N2CCOCC2)nc(-n2c(C(F)F)nc3ccccc32)n1)c1ccccc1 [Compound A3, (R)-4-(2-(difluoromethyl)-1H-benzo[d]imidazol-1-yl)-6-morpholino-N-(1-phenylethyl)-1,3,5-triazin-2-amine]	> 500	> 500	D’	–	–	–	–	–	–
CC[C@H](Nc1nc(N2CCOCC2)nc(-n2c(C(F)F)nc3ccccc32)n1)c1ccccc1 [Compound A5, (S)-4-(2-(difluoromethyl)-1H-benzo[d]imidazol-1-yl)-6-morpholino-N-(1-phenylpropyl)-1,3,5-triazin-2-amine]	> 500	200 to 500	C’	> 500	D’	100 to 200	C’	D’	> 500
CC[C@@H](Nc1nc(N2CCOCC2)nc(-n2c(C(F)F)nc3ccccc32)n1)c1ccccc1 [Compound A6, (R)-4-(2-(difluoromethyl)-1H-benzo[d]imidazol-1-yl)-6-morpholino-N-(1-phenylpropyl)-1,3,5-triazin-2-amine]	> 500	> 500	B’	–	–	–	–	–	–
CC(C)(Nc1nc(N2CCOCC2)nc(-n2c(C(F)F)nc3ccccc32)n1)c1ccccc1 [Compound A7, 4-(2-(difluoromethyl)-1H-benzo[d]imidazol-1-yl)-6-morpholino-N-(2-phenylpropan-2-yl)-1,3,5-triazin-2-amine]	> 500	100 to 200	C’	> 500	D’	200 to 500	A’	D’	> 500
CC(C)(Nc1nc(N2CCOCC2)nc(-n2c(C(F)F)nc3ccccc32)n1)c1ccc(Cl)cc1 [Compound A8, N-(2-(4-chlorophenyl)propan-2-yl)-4-(2-(difluoromethyl)-1H-benzo[d]imidazol-1-yl)-6-morpholino-1,3,5-triazin-2-amine]	> 500	> 500	C’	–	–	–	–	–	–
COc1ccc(C(C)(C)Nc2nc(N3CCOCC3)nc(-n3c(C(F)F)nc4ccccc43)n2)cc1 [Compound A9, 4-(2-(difluoromethyl)-1H-benzo[d]imidazol-1-yl)-N-(2-(4-methoxyphenyl)propan-2-yl)-6-morpholino-1,3,5-triazin-2-amine]	> 500	> 500	D’	–	–	–	–	–	–
COC(=O)[C@H](Nc1nc(N2CCOCC2)nc(-n2c(C(F)F)nc3ccccc32)n1)c1ccccc1 [Compound A11, (R)-methyl 2-((4-(2-(difluoromethyl)-1H-benzo[d]imidazol-1-yl)-6-morpholino-1,3,5-triazin-2-yl)amino)-2-phenylacetate]	200 to 500	≤ 100	D’	–	–	–	–	–	–
COC(=O)[C@@H](Nc1nc(N2CCOCC2)nc(-n2c(C(F)F)nc3ccccc32)n1)c1ccccc1 [Compound A12, (S)-methyl 2-((4-(2-(difluoromethyl)-1H-benzo[d]imidazol-1-yl)-6-morpholino-1,3,5-triazin-2-yl)amino)-2-phenylacetate]	> 500	200 to 500	D’	–	–	–	–	–	–
CC(C)(Nc1nc(N2CCOCC2)nc(-n2c(C(F)F)nc3ccccc32)n1)c1ccc2ccccc2c1 [Compound A13, 4-(2-(difluoromethyl)-1H-benzo[d]imidazol-1-yl)-6-morpholino-N-(2-(naphthalen-2-yl)propan-2-yl)-1,3,5-triazin-2-amine]	> 500	> 500	A’	–	–	–	–	–	–
CC(C)(Cc1ccccc1Br)Nc1nc(N2CCOCC2)nc(-n2c(C(F)F)nc3ccccc32)n1 [Compound A17, 4-(2-(difluoromethyl)-1H-benzo[d]imidazol-1-yl)-N-(1-(2-bromophenyl)-2-methylpropan-2-yl)-6-morpholino-1,3,5-triazin-2-amine]	> 500	–	–	–	–	–	–	–	> 500
CC(C)(Cc1cccc(Cl)c1)Nc1nc(N2CCOCC2)nc(-n2c(C(F)F)nc3ccccc32)n1 [Compound A20, N-(1-(3-chlorophenyl)-2-methylpropan-2-yl)-4-(2-(difluoromethyl)-1H-benzo[d]imidazol-1-yl)-6-morpholino-1,3,5-triazin-2-amine]	> 500	100 to 200	A’	100 to 200	A’	> 500	D’	C’	> 500
CC(C)(Cc1ccc2ccccc2c1)Nc1nc(N2CCOCC2)nc(-n2c(C(F)F)nc3ccccc32)n1 [Compound A26, 4-(2-(difluoromethyl)-1H-benzo[d]imidazol-1-yl)-N-(2-methyl-1-(naphthalen-2-yl)propan-2-yl)-6-morpholino-1,3,5-triazin-2-amine]	200 to 500	100 to 200	D’	≤ 100	C’	100 to 200	D’	D’	> 500
CC(C)(CNc1nc(N2CCOCC2)nc(-n2c(C(F)F)nc3ccccc32)n1)c1ccccc1 [Compound A29, 4-(2-(difluoromethyl)-1H-benzo[d]imidazol-1-yl)-N-(2-methyl-2-phenylpropyl)-6-morpholino-1,3,5-triazin-2-amine]	> 500	200 to 500	C’	> 500	D’	> 500	A’	D’	> 500
CC(C)(Nc1nc(N2CCOCC2)nc(-n2c(C(F)F)nc3ccccc32)n1)C1(c2ccccc2)CC1 [Compound A30, 4-(2-(difluoromethyl)-1H-benzo[d]imidazol-1-yl)-N-(2-(1-phenylcyclopropyl)propan-2-yl)-6-morpholino-1,3,5-triazin-2-amine]	> 500	100 to 200	A’	200 to 500	B’	> 500	D’	D’	> 500
FC(F)c1nc2ccccc2n1-c1nc(NCc2ccccc2)nc(N2CCOCC2)n1 [Ref 1, N-benzyl-4-(2-(difluoromethyl)-1H-benzo[d]imidazol-1-yl)-6-morpholino-1,3,5-triazin-2-amine, reference compound]	100 to 200	100 to 200	D’	–	–	–	–	–	–

Reference: US12059422B2 (MEI Pharma, Inc., priority 2011, dated 2024)
